In patent US20260224563A1, “CRYSTALLINE FORMS OF 6-(3-((5-CHLORO-2-METHOXYPYRIDINE)-3-SULFONAMIDO)-2,6-DIFLUOROPHENYL)-N-METHYLIMIDAZO[1,5-A]PYRAZINE-1-CARBOXAMIDE AND METHODS FOR USING THE SAME” (HIBERCELL, INC., priority 2023, published 2026):
Like-named read-outs stand apart in the source and are kept apart here.

Assay: Multicenter, open-label, Phase 1a/b study of HC-7366 in subjects with advanced solid tumors (safety, PK)
Type: in vivo
Settings: for ARAUC: accumulation ratio based on AUC0-τ; for ARAUC / CL/F / Ctrough / DAUC0-last / DAUC0-τ / DCmax / tlast / Cmax / half-life / AUC(0-t) / Vd/F / Tmax: human; for Cmax / half-life / AUC(0-t) / Vd/F / Tmax: plasma, po; for Vd/F: read-out: Vz/F
Excerpt: Identify the maximum tolerated dose (MTD) and/or recommended Phase 2 dose (RP2D) of HC-7366, and evaluate the safety, tolerability, and dose-limiting toxicities (DLTs) of HC-7366 using Form III of the potassium salt of the compound of formula (I) (see Example 6, also referred to within this example as HC-7366-K), in subjects with advanced solid tumors, including: • a. occurrence of DLTs • b. incidence and severity of treatment-emergent adverse events (TEAEs) and treatment related TEAEs according to National Cancer Institute Common Terminology Criteria for Adverse Events (NCI CTCAE) v 5.0 • c. incidence of TEAEs leading to premature discontinuation • d. incidence of laboratory abnormalities, based on NCI CTCAE grades of hematology, serum chemistry, and urinalysis test results • e. incidence of abnormalities observed in 12 lead ECG parameters • f. incidence of abnormalities observed in vital signs measurements
Determine plasma concentration and pharmacokinetic (PK) parameters following treatment with HC-7366 using Form III of the potassium salt of the compound of formula (I) (see Example 6, also referred to within this example as HC-7366-K).
Preliminarily assess the potential antitumor activity of HC-7366 in terms of response rate, disease stabilization, and survival outcomes by assessing: • a. Overall response rate (ORR) to HC-7366 using response evaluation criteria in solid tumors (iRECIST) • b. Duration of response (DOR) to HC-7366 using iRECIST • c. Time to treatment failure (TTF) • d. Progression free survival (PFS) using iRECIST • e. Overall survival (OS)
This is a first in human, multicenter, open label, Phase 1a and 1b dose-escalation and dose-expansion study to establish the maximum tolerated dose, recommended Phase 2 dose, and evaluate the safety and tolerability of QD oral dosing of HC 7366 in a dose escalating fashion in subjects with advanced solid tumors. Up to 40 subjects were enrolled into the Phase 1a dose-escalation part of the study. The study was conducted in the United States at approximately 7 to 10 sites.
Every effort was made to ensure approximately 50% of all subjects enrolled into Phase 1a of this study are subjects with the tumors of special interest including squamous cell carcinoma of the head and neck, colorectal cancer, non-small cell lung cancer, and transitional cell carcinoma of the bladder. […] All subjects in Phase 1b enrolled with clear cell renal cell carcinoma. The Phase 1a study followed a traditional 3+3 design. The starting dose level was 10 mg QD, escalating to 20, 40, 75, 125, and 150 mg QD as safety allows. All doses were administered in the fasting state with water at least 1 hour before food or at least 2 hours after food.
The Phase 1b dose-expansion was at a single dose level of 75 mg based on the safety, tolerability, PK/PD results from Phase 1a to obtain additional safety and preliminary efficacy information. Up to 30 subjects were enrolled in the Phase 1b portion of the study at the 75 mg dose. Replacement patients were enrolled as necessary. Subjects were dosed until unacceptable toxicity, disease progression per immune-related Response Evaluation Criteria in Solid Tumors, discontinuation of treatment for other protocol allowed reason (eg, subject refusal), any other administrative reasons, or after 2 years of treatment, whichever occurs first.
For scheduling purposes, dosing in Phase 1a and 1b occurred in 3 week cycles and computed tomography scans were conducted once every 6 weeks from Cycle 1/Day 1, with the first postbaseline scan after 6 weeks of dosing (precycle 3) until confirmed disease progression, death, start of new anticancer therapy, withdrawal of consent, or end of study, whichever occurs first.
Subjects of Phase 1a and 1b spent Cycle 1/Day 1 (C1D1) in the clinic followed by an optional overnight stay for safety monitoring and PK sampling. Subjects were hospitalized (optional) for administration of the first 2 doses: C1D1 and Cycle 1/Day 2 (C1D2). […]

[1] = multiple once daily oral 10 mg (N = 3), Cycle 1 Day 21, geometric mean
[2] = multiple once daily oral 20 mg (N = 3), Cycle 1 Day 21, geometric mean
[3] = multiple once daily oral 40 mg (N = 8), Cycle 1 Day 21, geometric mean
[4] = multiple once daily oral 75 mg (N = 7), Cycle 1 Day 21, geometric mean
[5] = multiple once daily oral 125 mg (N = 1), Cycle 1 Day 21
[6] = human subjects, multiple once daily oral administration, 10 mg
[7] = human subjects, multiple once daily oral administration, 20 mg
[8] = human subjects, multiple once daily oral administration, 40 mg
[9] = human subjects, multiple once daily oral administration, 75 mg
[10] = human subjects, multiple once daily oral administration, 125 mg (N=1)
[11] = 10 mg, multiple once daily oral 10 mg (N = 3), Cycle 1 Day 21, geometric mean
[12] = 10 mg, single oral dose 10 mg (N = 3), Cycle 1 Day 1, geometric mean
[13] = 20 mg, multiple once daily oral 20 mg (N = 3), Cycle 1 Day 21, geometric mean
[14] = 20 mg, single oral dose 20 mg (N = 3), Cycle 1 Day 1, geometric mean
[15] = 40 mg, multiple once daily oral 40 mg (N = 8), Cycle 1 Day 21, geometric mean
[16] = 40 mg, single oral dose 40 mg (N = 11), Cycle 1 Day 1, geometric mean

## CNC(=O)c1ncn2cc(-c3c(F)ccc(NS(=O)(=O)c4cc(Cl)cnc4OC)c3F)ncc12 [HC-7366, 6-(3-((5-chloro-2-methoxypyridine)-3-sulfonamido)-2,6-difluorophenyl)-N-methylimidazo[1,5-a]pyrazine-1-carboxamide]
[1]
  ARAUC: 1.45
  CL/F: 0.457 L/h
  Ctrough: 517 ng/mL
  DAUC0-last: 1700 ng·h/mL/mg
  DAUC0-τ: 2190 ng·h/mL/mg
  DCmax: 198 ng/mL/mg
[2]
  ARAUC: 1.46
  CL/F: 0.478 L/h
  Ctrough: 674 ng/mL
  DAUC0-last: 2090 ng·h/mL/mg
  DAUC0-τ: 2090 ng·h/mL/mg
  DCmax: 185 ng/mL/mg
[3]
  ARAUC: 1.89
  CL/F: 0.403 L/h
  Ctrough: 2360 ng/mL
  DAUC0-last: 2380 ng·h/mL/mg
  DAUC0-τ: 2480 ng·h/mL/mg
  DCmax: 184 ng/mL/mg
[4]
  ARAUC: 1.77
  CL/F: 0.402 L/h
  Ctrough: 5010 ng/mL
  DAUC0-last: 2210 ng·h/mL/mg
  DAUC0-τ: 2490 ng·h/mL/mg
  DCmax: 190 ng/mL/mg
[5]
  ARAUC: 1.13
  CL/F: 0.311 L/h
  Ctrough: 3780 ng/mL
  DAUC0-last: 2080 ng·h/mL/mg
  DAUC0-τ: 3210 ng·h/mL/mg
  DCmax: 306 ng/mL/mg
Human subjects, 10 to 75 mg, single dose and multiple once daily dosing
  dose proportionality of exposure (geometric mean Cmax and AUC): increased approximately proportional to increases in dose
Human subjects, continuous once daily dosing, trough concentrations
  time by which exposure appeared to be at steady-state: Cycle 1 Day 8 to Day 15
Human subjects, increase from 75 to 125 mg, single dose administration
  dose proportionality of exposure: slightly greater than dose proportional
[6]
  geometric mean accumulation ratio (ARAUC): 1.45
  geometric mean linearity ratio (LR): 1.11
[7]
  geometric mean accumulation ratio (ARAUC): 1.46
  geometric mean linearity ratio (LR): 1.14
[8]
  geometric mean accumulation ratio (ARAUC): 1.89
  geometric mean linearity ratio (LR): 1.11
[9]
  geometric mean accumulation ratio (ARAUC): 1.77
  geometric mean linearity ratio (LR): 1.22
[10]
  accumulation ratio (ARAUC): 1.13
  linearity ratio (LR): 0.759
Multiple once daily oral 10 mg (N = 3), Cycle 1 Day 21, median
  tlast: 12.00 h
Multiple once daily oral 20 mg (N = 3), Cycle 1 Day 21, median
  tlast: 24.00 h
Multiple once daily oral 40 mg (N = 8), Cycle 1 Day 21, median
  tlast: 24.00 h
Multiple once daily oral 75 mg (N = 7), Cycle 1 Day 21, median
  tlast: 24.00 h
[11]
  Cmax: 1980 ng/mL
  half-life: 596 min
  Vd/F: 6.55 L
10 mg, multiple once daily oral 10 mg (N = 3), Cycle 1 Day 21, geometric mean, read-out: AUC0-last
  AUC(0-t): 17000 ng·h/mL
10 mg, multiple once daily oral 10 mg (N = 3), Cycle 1 Day 21, median
  Tmax: 2 h
[12]
  Cmax: 1450 ng/mL
  half-life: 678 min
  Vd/F: 8.26 L
10 mg, single oral dose 10 mg (N = 3), Cycle 1 Day 1, geometric mean, read-out: AUC0-24
  AUC(0-t): 15100 ng·h/mL
10 mg, single oral dose 10 mg (N = 3), Cycle 1 Day 1, geometric mean, read-out: AUC0-last
  AUC(0-t): 15100 ng·h/mL
10 mg, single oral dose 10 mg (N = 3), Cycle 1 Day 1, median
  Tmax: 2 h
[13]
  Cmax: 3710 ng/mL
  half-life: 732 min
  Vd/F: 8.4 L
20 mg, multiple once daily oral 20 mg (N = 3), Cycle 1 Day 21, geometric mean, read-out: AUC0-last
  AUC(0-t): 41900 ng·h/mL
20 mg, multiple once daily oral 20 mg (N = 3), Cycle 1 Day 21, median
  Tmax: 2 h
[14]
  Cmax: 2330 ng/mL
  half-life: 599 min
  Vd/F: 7.84 L
20 mg, single oral dose 20 mg (N = 3), Cycle 1 Day 1, geometric mean, read-out: AUC0-24
  AUC(0-t): 28700 ng·h/mL
20 mg, single oral dose 20 mg (N = 3), Cycle 1 Day 1, geometric mean, read-out: AUC0-last
  AUC(0-t): 28700 ng·h/mL
20 mg, single oral dose 20 mg (N = 3), Cycle 1 Day 1, median
  Tmax: 4 h
[15]
  Cmax: 7360 ng/mL
  half-life: 744 min
  Vd/F: 8.31 L
40 mg, multiple once daily oral 40 mg (N = 8), Cycle 1 Day 21, geometric mean, read-out: AUC0-last
  AUC(0-t): 95000 ng·h/mL
40 mg, multiple once daily oral 40 mg (N = 8), Cycle 1 Day 21, median
  Tmax: 2 h
[16]
  Cmax: 4520 ng/mL
  half-life: 888 min
